≈ marks a conversion by molar mass, not a printed value. Where “and” joins values, the source holds several entries; their conditions need not be identical. Equal values may be shown once. Read-outs that look alike come from different tables or passages of the source.
Columns and labels:
Test in all cases: in vitro agar dilution test (MIC)
Type in all cases: cell-based
Enterococcus OSU 75-1 = settings: Mueller-Hinton agar
Method: (§1) The compounds of the present invention are active antibacterial agents as established in the in vitro agar dilution test using Mueller-Hinton agar. The test compounds were dissolved in a mixture of dimethyl sulfoxide and aqueous sodium bicarbonate and applied as 1 ml of drug solution plus 9 ml of agar per plate. The innoculum was a 5 hour TSB shake culture diluted to 10^-2 with Mueller-Hinton broth and applied to the plates with a Steers' Replicator.
(§2) The results of this test on representative compounds of this invention (identified by Example Number) against a variety of microorganisms appear in Tables I and II in terms of minimal inhibitory concentration (MIC) in mcg/ml together with Cefotaxime, Cephalothin and Ampicillin as positive controls.

Pseudomonas 12-4-4 = settings: Mueller-Hinton agar
Method: as §1, §2

[1] = tested on: Staphylococcus FU 79-19-2β^+; settings: Mueller-Hinton agar
Method: as §1, §2

[2] = tested on: Providencia stuarti SSC 80-78; settings: SSC8078, Mueller-Hinton agar
Method: as §1, §2

[3] = tested on: Pseudomonas aeruginosa ATCC 27853; settings: Mueller-Hinton agar
Method: as §1, §2

Proteus rettgheri K 77-6 = settings: Mueller-Hinton agar
Method: as §1, §2

[4] = tested on: Providencia stuarti K 81-29; settings: K8129, Mueller-Hinton agar
Method: as §1, §2

Staphylococcus Smith = settings: Mueller-Hinton agar, Table I
Method: as §1, §2

[5] = tested on: Enterobacter aerogenes STFD 79-14; settings: Klebsiella aerogenes, STFD7914, Enterobacter aerogenes STFD 79-14; Mueller-Hinton agar
Method: as §1, §2

Pseudomonas SSC 78-13 = settings: SSC7813, Mueller-Hinton agar
Method: as §1, §2

Acinetobacter STFD 79-17 = settings: Mueller-Hinton agar
Method: as §1, §2

Proteus rettgheri N 76-1 = settings: Mueller-Hinton agar
Method: as §1, §2

Salmonella SSC 79-57 = settings: SSC7957, Mueller-Hinton agar
Method: as §1, §2

Serratia QHC 77-2 = settings: QHC772, Serratia QHC 77-2, Mueller-Hinton agar
Method: as §1, §2

Serratia TUL 78-15 = settings: TUL7815, Serratia TUL 78-15, Mueller-Hinton agar
Method: as §1, §2

Proteus morganii K 79-25 = settings: Morganella morganii, K7925, Proteus morganii K 79-25; Mueller-Hinton agar
Method: as §1, §2

Klebsiella pneumoniae AD = settings: Mueller-Hinton agar, Table I
Method: as §1, §2

[6] = tested on: Enterobacter cloacae K 79-16; settings: K7916, Enterobacter cloacae K 79-16, Mueller-Hinton agar
Method: as §1, §2

[7] = tested on: Escherichia coli STFD 79-20; settings: STFD7920, Escherichia coli STFD 79-20, Mueller-Hinton agar
Method: as §1, §2

Acinetobacter K 77-1 = settings: K771, Acinetobacter K 77-1, Mueller-Hinton agar
Method: as §1, §2

Klebsiella STFD 79-6 = settings: STFD796, Klebsiella STFD 79-6, Mueller-Hinton agar
Method: as §1, §2

Escherichia coli 311 = settings: Escherichia coli, 311, Escherichia coli 311; Mueller-Hinton agar
Method: as §1, §2

[8] = tested on: Staphylococcus ATCC 25923; settings: ATCC25923, Staphylococcus ATCC 25923, Mueller-Hinton agar, Table I
Method: as §1, §2

Enterococcus SM 77-15 = settings: SM7715, Enterococcus SM 77-15, Mueller-Hinton agar
Method: as §1, §2

[9] = tested on: Escherichia coli ATCC 25922; settings: ATCC25922, Escherichia coli ATCC 25922, Mueller-Hinton agar, Table I
Method: as §1, §2

[10] = tested on: Escherichia coli ESS 22-31; settings: ESS2231, Mueller-Hinton agar
Method: as §1, §2

[11] = tested on: Staphylococcus SSC 79-18β^-; settings: Mueller-Hinton agar
Method: as §1, §2

[12] = tested on: Salmonella ariz. QHC 77-3; settings: Mueller-Hinton agar
Method: as §1, §2

Klebsiella SSC 78-1 = settings: SSC781, Klebsiella SSC 78-1, Mueller-Hinton agar
Method: as §1, §2

[13] = tested on: Micrococcus lutea PCI 1001; settings: PCI1001, Micrococcus lutea PCI 1001, Mueller-Hinton agar
Method: as §1, §2

[14] = Enterococcus, OSU751, Enterococcus OSU 75-1, read-out: MIC
[15] = Pseudomonas, 1244, Pseudomonas 12-4-4, read-out: MIC
[16] = Pseudomonas aeruginosa, ATCC27853, Pseudomonas aeruginosa ATCC 27853, read-out: MIC
[17] = Acinetobacter, STFD7917, Acinetobacter STFD 79-17, read-out: MIC

## CO/N=C(\C(=O)N[C@@H]1C(=O)N2C(C(=O)O)=C(COC(C)=O)CS[C@H]12)c1csc(N)n1 [Cefotaxime, 3-[(acetyloxy)methyl]-7β-[[(2-amino-4-thiazolyl)(methoxyimino)acetyl]amino]-8-oxo-5-thia-1-azabicyclo[4.2.0]oct-2-ene-2-carboxylic acid, reference compound]
Enterococcus OSU 75-1; Enterococcus OSU 75-1
  MIC: 64 µg/mL and > 128 µg/mL
Enterococcus OSU 75-1; [14]
  MIC: 128 µg/mL (≈ 281 µM)
Pseudomonas 12-4-4; Pseudomonas 12-4-4
  MIC: 8 µg/mL (≈ 17.6 µM)
Pseudomonas 12-4-4; [15]
  MIC: 16 µg/mL (≈ 35.1 µM)
[1]
  MIC: 8 µg/mL (≈ 17.6 µM)
[1]; Staphylococcus, read-out: MIC
  MIC: 4 µg/mL (≈ 8.78 µM)
[2]
  MIC: ≤ 0.06 µg/mL
[3]; Pseudomonas aeruginosa ATCC 27853
  MIC: 32 µg/mL (≈ 70.3 µM)
[3]; [16]
  MIC: 16 µg/mL (≈ 35.1 µM)
Proteus rettgheri K 77-6
  MIC: ≤ 0.06 µg/mL
[4]
  MIC: 0.25 µg/mL (≈ 0.549 µM)
Staphylococcus Smith
  MIC: 2 µg/mL (≈ 4.39 µM)
Staphylococcus Smith; Staphylococcus, read-out: MIC
  MIC: 1 µg/mL (≈ 2.2 µM)
[5]
  MIC: 0.03 µg/mL (≈ 0.0659 µM)
Pseudomonas SSC 78-13
  MIC: 32 µg/mL (≈ 70.3 µM)
Acinetobacter STFD 79-17; Acinetobacter STFD 79-17
  MIC: 16 µg/mL (≈ 35.1 µM)
Acinetobacter STFD 79-17; [17]
  MIC: 8 µg/mL (≈ 17.6 µM)
Proteus rettgheri N 76-1
  MIC: ≤ 0.015 µg/mL
Salmonella SSC 79-57
  MIC: 0.25 µg/mL (≈ 0.549 µM)

## CO/N=C(\C(=O)N[C@@H]1C(=O)N2C(C(=O)O)=C(CSc3nnsc3-c3ccccc3)CS[C@H]12)c1csc(N)n1 [Example 1, (Z)-7-[[(2-Amino-4-thiazolyl)(methoxyimino)acetyl]amino]-8-oxo-3-[[(5-phenyl-1,2,3-thiadiazol-4-yl)thio]mehtyl]-5-thia-1-azabicyclo[4.2.0]oct-2-ene-2-carboxylic acid]
Enterococcus OSU 75-1; [14]
  MIC: 128 µg/mL (≈ 217 µM)
Pseudomonas 12-4-4; [15]
  MIC: > 128 µg/mL
Serratia QHC 77-2
  MIC: 8 µg/mL (≈ 13.6 µM)
Serratia TUL 78-15
  MIC: 8 µg/mL (≈ 13.6 µM)
[1]; Staphylococcus, read-out: MIC
  MIC: 4 µg/mL (≈ 6.78 µM)
Proteus morganii K 79-25
  MIC: 0.5 µg/mL (≈ 0.848 µM)
[3]; [16]
  MIC: 128 µg/mL (≈ 217 µM)
Klebsiella pneumoniae AD
  MIC: 0.25 µg/mL (≈ 0.424 µM)
[6]
  MIC: 4 µg/mL (≈ 6.78 µM)
[7]
  MIC: 0.5 µg/mL (≈ 0.848 µM)
Acinetobacter K 77-1
  MIC: 4 µg/mL (≈ 6.78 µM)
Klebsiella STFD 79-6
  MIC: 0.5 µg/mL (≈ 0.848 µM)
Staphylococcus Smith; Staphylococcus, read-out: MIC
  MIC: 1 µg/mL (≈ 1.7 µM)
[5]
  MIC: 1 µg/mL (≈ 1.7 µM)
Escherichia coli 311
  MIC: 0.5 µg/mL (≈ 0.848 µM)
[8]
  MIC: 2 µg/mL (≈ 3.39 µM)
Enterococcus SM 77-15
  MIC: 64 µg/mL (≈ 109 µM)
[9]
  MIC: 0.12 µg/mL (≈ 0.203 µM)
[10]
  MIC: ≤ 0.015 µg/mL
[11]
  MIC: 1 µg/mL (≈ 1.7 µM)
Pseudomonas SSC 78-13
  MIC: 128 µg/mL (≈ 217 µM)
Acinetobacter STFD 79-17; [17]
  MIC: 16 µg/mL (≈ 27.1 µM)
Proteus rettgheri N 76-1
  MIC: ≤ 0.015 µg/mL
Salmonella SSC 79-57
  MIC: 4 µg/mL (≈ 6.78 µM)
[12]
  MIC: 1 µg/mL (≈ 1.7 µM)
Klebsiella SSC 78-1
  MIC: 0.5 µg/mL (≈ 0.848 µM)

## CO/N=C(\C(=O)N[C@@H]1C(=O)N2C(C(=O)O)=C(CSc3nnsc3-c3ccc(C(C)(C)C)cc3)CS[C@H]12)c1csc(N)n1 [Example 2, (Z)-7-[[(2-Amino-4-thiazolyl)(methoxyimino)acetyl]amino]-3-[[[5-[4-(1,1-dimethylethyl)phenyl]-1,2,3-thiadiazol-4-yl]thio]methyl]-8-oxo-5-thia-1-azabicyclo-[4.2.0]oct-2-ene-2-carboxylic acid]
Enterococcus OSU 75-1; [14]
  MIC: 256 µg/mL (≈ 396 µM)
Pseudomonas 12-4-4; [15]
  MIC: > 256 µg/mL
Serratia QHC 77-2
  MIC: 32 µg/mL (≈ 49.5 µM)
Serratia TUL 78-15
  MIC: 32 µg/mL (≈ 49.5 µM)
[1]; Staphylococcus, read-out: MIC
  MIC: 32 µg/mL (≈ 49.5 µM)
[13]
  MIC: 0.06 µg/mL (≈ 0.0929 µM)
Proteus morganii K 79-25
  MIC: 0.5 µg/mL (≈ 0.774 µM)
[3]; [16]
  MIC: > 256 µg/mL
Klebsiella pneumoniae AD
  MIC: 0.06 µg/mL (≈ 0.0929 µM)
[6]
  MIC: 2 µg/mL (≈ 3.1 µM)
[7]
  MIC: 0.25 µg/mL (≈ 0.387 µM)
Acinetobacter K 77-1
  MIC: 16 µg/mL (≈ 24.8 µM)
Klebsiella STFD 79-6
  MIC: 0.06 µg/mL (≈ 0.0929 µM)
Staphylococcus Smith; Staphylococcus, read-out: MIC
  MIC: 8 µg/mL (≈ 12.4 µM)
[5]
  MIC: 0.5 µg/mL (≈ 0.774 µM)
Escherichia coli 311
  MIC: 0.25 µg/mL (≈ 0.387 µM)
[8]
  MIC: 16 µg/mL (≈ 24.8 µM)
Enterococcus SM 77-15
  MIC: 256 µg/mL (≈ 396 µM)
[9]
  MIC: 0.06 µg/mL (≈ 0.0929 µM)
[10]
  MIC: ≤ 0.03 µg/mL
[11]
  MIC: 8 µg/mL (≈ 12.4 µM)
Pseudomonas SSC 78-13
  MIC: > 256 µg/mL
Acinetobacter STFD 79-17; [17]
  MIC: 128 µg/mL (≈ 198 µM)
Proteus rettgheri N 76-1
  MIC: ≤ 0.03 µg/mL
Salmonella SSC 79-57
  MIC: 4 µg/mL (≈ 6.19 µM)
[12]
  MIC: 1 µg/mL (≈ 1.55 µM)
Klebsiella SSC 78-1
  MIC: 0.06 µg/mL (≈ 0.0929 µM)

## CO/N=C(\C(=O)N[C@@H]1C(=O)N2C(C(=O)O)=C(CSc3nnsc3C(C)(C)C)CS[C@H]12)c1csc(N)n1 [Example 6, (Z)-7-[[(2-Amino-4-thiazolyl)(methoxyimino)acetyl]amino]-3-[[[5-(1,1-dimethylethyl)-1,2,3-thiadiazol-4-yl]thio]methyl]-8-oxo-5-thia-1-azabicyclo[4.2.0]oct-2-ene-2-carboxylic acid]
Enterococcus OSU 75-1; [14]
  MIC: 256 µg/mL (≈ 449 µM)
Pseudomonas 12-4-4; [15]
  MIC: 64 µg/mL (≈ 112 µM)
Serratia QHC 77-2
  MIC: 8 µg/mL (≈ 14 µM)
Serratia TUL 78-15
  MIC: 8 µg/mL (≈ 14 µM)
[1]; Staphylococcus, read-out: MIC
  MIC: 16 µg/mL (≈ 28.1 µM)
[2]
  MIC: 5 µg/mL (≈ 8.78 µM)
[13]
  MIC: 0.25 µg/mL (≈ 0.439 µM)
Proteus morganii K 79-25
  MIC: 16 µg/mL (≈ 28.1 µM)
[3]; [16]
  MIC: 128 µg/mL (≈ 225 µM)
Klebsiella pneumoniae AD
  MIC: 0.25 µg/mL (≈ 0.439 µM)
[6]
  MIC: 1 µg/mL (≈ 1.76 µM)
Proteus rettgheri K 77-6
  MIC: ≤ 0.12 µg/mL
[7]
  MIC: 0.5 µg/mL (≈ 0.878 µM)
Acinetobacter K 77-1
  MIC: 32 µg/mL (≈ 56.2 µM)
[4]
  MIC: 1 µg/mL (≈ 1.76 µM)
Klebsiella STFD 79-6
  MIC: 2 µg/mL (≈ 3.51 µM)
Staphylococcus Smith; Staphylococcus, read-out: MIC
  MIC: 2 µg/mL (≈ 3.51 µM)
[5]
  MIC: 4 µg/mL (≈ 7.02 µM)
Escherichia coli 311
  MIC: 0.5 µg/mL (≈ 0.878 µM)
[8]
  MIC: 4 µg/mL (≈ 7.02 µM)
Enterococcus SM 77-15
  MIC: 128 µg/mL (≈ 225 µM)
[9]
  MIC: 2 µg/mL (≈ 3.51 µM)
[10]
  MIC: 0.5 µg/mL (≈ 0.878 µM)
[11]
  MIC: 1 µg/mL (≈ 1.76 µM)
Pseudomonas SSC 78-13
  MIC: 64 µg/mL (≈ 112 µM)
Acinetobacter STFD 79-17; [17]
  MIC: 32 µg/mL (≈ 56.2 µM)
Salmonella SSC 79-57
  MIC: 8 µg/mL (≈ 14 µM)
[12]
  MIC: 2 µg/mL (≈ 3.51 µM)
Klebsiella SSC 78-1
  MIC: 1 µg/mL (≈ 1.76 µM)

From patent US4927922A, “7β-(substituted)amino-3-substituted cephalosporanic acids and esters” (American Cyanamid Company, priority 1988, dated 1990)
